Experimental findings from publication PMC2723102, “The interactome of the amyloid β precursor protein family members is shaped by phosphorylation of their intracellular domains” (Molecular Neurodegeneration, 2009) are described below.

By Kd is commonly meant the equilibrium constant for the complex coming apart. The low end stands for tighter binding, the high end for weaker binding.

Common to all, as to assay type: binding
Assay [1] concerns the target T1, GST-Grb2 (Homo sapiens, UniProt P62993).
T1 construct: All these targets analyzed contain either an SH2 or a PTB domain fused to GST; made in house; host or cells: bacterial cultures
As to the kind of experiment: BIAcore surface plasmon resonance, GST-Grb2. Conditions: SPR, BIAcore 3000, strep-tag peptide amine coupled to CM-5 chip (4500–7500 RU), analyte GST-Grb2. The source says:
(§1) Binding of GST and GST-Grb2, NUMB p71, and X11β domains to strep-tag AID peptide or different phosphorylation forms was monitored by surface plasmon resonance (SPR) on a BIAcore 3000 machine (BIAcore, Neuchâtel, Switzerland). The strep-tag peptide and different phosphorylation forms of AID peptides were covalently amine coupled to a CM-5 sensor chip by use of the amine covalent coupling. An immobilization level of 4500–7500 resonance units was obtained. A nonderivatized flowcell serves as a reference surface. Interactions between GST and GST-Grb2, NUMB p71, and X11β to strep-tag peptides were determined by the change in signal measured in RU.
Background: In SPR one partner is held on a chip, and binding of the other changes the refractive index at the surface.

Assay [2] addresses T2, GST-X11β (Homo sapiens, UniProt Q99767).
T2 construct: All these targets analyzed contain either an SH2 or a PTB domain fused to GST; made in house; host or cells: bacterial cultures
T2 sequence (Q99767 368-555 limits assumed): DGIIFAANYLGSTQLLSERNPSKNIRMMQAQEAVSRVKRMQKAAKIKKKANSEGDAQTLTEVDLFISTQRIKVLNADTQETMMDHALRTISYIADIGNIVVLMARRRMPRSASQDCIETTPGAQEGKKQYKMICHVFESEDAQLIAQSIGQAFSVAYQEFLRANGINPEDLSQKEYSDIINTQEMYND
As to the kind of experiment: BIAcore surface plasmon resonance, GST-X11β. Conditions: SPR, BIAcore 3000, strep-tag peptide amine coupled to CM-5 chip (4500–7500 RU), analyte GST-X11β.
Source text: as §1

The target in assay [3] is T3, GST-NUMB-p71 (Homo sapiens, UniProt P49757).
T3 construct: All these targets analyzed contain either an SH2 or a PTB domain fused to GST; made in house; host or cells: bacterial cultures
T3 sequence (P49757 33-182 isoform P49757-3): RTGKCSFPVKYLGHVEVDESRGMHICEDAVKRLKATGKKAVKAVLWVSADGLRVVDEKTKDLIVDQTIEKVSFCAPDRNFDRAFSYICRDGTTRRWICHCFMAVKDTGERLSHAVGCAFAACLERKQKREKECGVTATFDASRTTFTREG
As to the kind of experiment: BIAcore surface plasmon resonance, GST-NUMB-p71. Conditions: SPR, BIAcore 3000, strep-tag peptide amine coupled to CM-5 chip (4500–7500 RU), analyte GST-NUMB-p71.
Source text: as §1

T1 sequence (P62993 60-152 limits assumed): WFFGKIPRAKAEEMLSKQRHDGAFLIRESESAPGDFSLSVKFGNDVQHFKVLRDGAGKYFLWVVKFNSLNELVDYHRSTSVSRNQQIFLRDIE

Take `CC[C@H](C)[C@H](NC(=O)[C@H](CO)NC(=O)[C@@H](NC(=O)[C@H](Cc1ccc(O)cc1)NC(=O)[C@H](CCC(N)=O)NC(=O)[C@H](CCCCN)NC(=O)[C@H](CCCCN)NC(=O)[C@H](CCCCN)NC(=O)[C@H](CC(C)C)NC(=O)[C@H](CCSC)NC(=O)[C@@H](N)C(C)C)[C@@H](C)O)C(=O)N[C@@H](Cc1c[nH]cn1)C(=O)N[C@@H](Cc1c[nH]cn1)C(=O)NCC(=O)N[C@H](C(=O)N[C@H](C(=O)N[C@@H](CCC(=O)O)C(=O)N[C@H](C(=O)N[C@@H](CC(=O)O)C(=O)N[C@@H](C)C(=O)N[C@@H](C)C(=O)N[C@H](C(=O)N[C@H](C(=O)N1CCC[C@H]1C(=O)N[C@@H](CCC(=O)O)C(=O)N[C@@H](CCC(=O)O)C(=O)N[C@@H](CCCNC(=N)N)C(=O)N[C@@H](Cc1c[nH]cn1)C(=O)N[C@@H](CC(C)C)C(=O)N[C@@H](CO)C(=O)N[C@@H](CCCCN)C(=O)N[C@@H](CCSC)C(=O)N[C@@H](CCC(N)=O)C(=O)N[C@@H](CCC(N)=O)C(=O)N[C@@H](CC(N)=O)C(=O)NCC(=O)N[C@@H](Cc1ccc(OP(=O)(O)O)cc1)C(=O)N[C@@H](CCC(=O)O)C(=O)N[C@@H](CC(N)=O)C(=O)N1CCC[C@H]1C(=O)N[C@H](C(=O)N[C@@H](Cc1ccc(O)cc1)C(=O)N[C@@H](CCCCN)C(=O)N[C@@H](Cc1ccccc1)C(=O)N[C@@H](Cc1ccccc1)C(=O)N[C@@H](CCC(=O)O)C(=O)N[C@@H](CCC(N)=O)C(=O)N[C@@H](CCSC)C(=O)N[C@@H](CCC(N)=O)C(=O)N[C@@H](CC(N)=O)C(=O)O)[C@@H](C)O)[C@@H](C)OP(=O)(O)O)C(C)C)C(C)C)C(C)C)C(C)C` [AIDpTpY]: the figures for the equilibrium dissociation constant (Kd) in assay [1] and in assay [2] were 0.413 nM and 13.1 nM, respectively.

For the compound `CC[C@H](C)[C@H](NC(=O)[C@H](CO)NC(=O)[C@@H](NC(=O)[C@H](Cc1ccc(O)cc1)NC(=O)[C@H](CCC(N)=O)NC(=O)[C@H](CCCCN)NC(=O)[C@H](CCCCN)NC(=O)[C@H](CCCCN)NC(=O)[C@H](CC(C)C)NC(=O)[C@H](CCSC)NC(=O)[C@@H](N)C(C)C)[C@@H](C)O)C(=O)N[C@@H](Cc1c[nH]cn1)C(=O)N[C@@H](Cc1c[nH]cn1)C(=O)NCC(=O)N[C@H](C(=O)N[C@H](C(=O)N[C@@H](CCC(=O)O)C(=O)N[C@H](C(=O)N[C@@H](CC(=O)O)C(=O)N[C@@H](C)C(=O)N[C@@H](C)C(=O)N[C@H](C(=O)N[C@H](C(=O)N1CCC[C@H]1C(=O)N[C@@H](CCC(=O)O)C(=O)N[C@@H](CCC(=O)O)C(=O)N[C@@H](CCCNC(=N)N)C(=O)N[C@@H](Cc1c[nH]cn1)C(=O)N[C@@H](CC(C)C)C(=O)N[C@@H](CO)C(=O)N[C@@H](CCCCN)C(=O)N[C@@H](CCSC)C(=O)N[C@@H](CCC(N)=O)C(=O)N[C@@H](CCC(N)=O)C(=O)N[C@@H](CC(N)=O)C(=O)NCC(=O)N[C@@H](Cc1ccc(OP(=O)(O)O)cc1)C(=O)N[C@@H](CCC(=O)O)C(=O)N[C@@H](CC(N)=O)C(=O)N1CCC[C@H]1C(=O)N[C@H](C(=O)N[C@@H](Cc1ccc(O)cc1)C(=O)N[C@@H](CCCCN)C(=O)N[C@@H](Cc1ccccc1)C(=O)N[C@@H](Cc1ccccc1)C(=O)N[C@@H](CCC(=O)O)C(=O)N[C@@H](CCC(N)=O)C(=O)N[C@@H](CCSC)C(=O)N[C@@H](CCC(N)=O)C(=O)N[C@@H](CC(N)=O)C(=O)O)[C@@H](C)O)[C@@H](C)O)C(C)C)C(C)C)C(C)C)C(C)C` [AIDpY], the Kd is 2.57 nM in assay [1] and 997 nM in assay [3].
